Measurements from US8653126B2, “Imidazole derivative” (Daiichi Sankyo Company, Limited, priority 2010, dated 2014).

Target: T1, S1P lyase (Mus musculus, UniProt Q8R0X7)
T1 construct: The extirpated thymus was crushed; from tissue; host or cells: thymus of BALB/c mice (thymus extract)
T1 sequence (Q8R0X7 1-568): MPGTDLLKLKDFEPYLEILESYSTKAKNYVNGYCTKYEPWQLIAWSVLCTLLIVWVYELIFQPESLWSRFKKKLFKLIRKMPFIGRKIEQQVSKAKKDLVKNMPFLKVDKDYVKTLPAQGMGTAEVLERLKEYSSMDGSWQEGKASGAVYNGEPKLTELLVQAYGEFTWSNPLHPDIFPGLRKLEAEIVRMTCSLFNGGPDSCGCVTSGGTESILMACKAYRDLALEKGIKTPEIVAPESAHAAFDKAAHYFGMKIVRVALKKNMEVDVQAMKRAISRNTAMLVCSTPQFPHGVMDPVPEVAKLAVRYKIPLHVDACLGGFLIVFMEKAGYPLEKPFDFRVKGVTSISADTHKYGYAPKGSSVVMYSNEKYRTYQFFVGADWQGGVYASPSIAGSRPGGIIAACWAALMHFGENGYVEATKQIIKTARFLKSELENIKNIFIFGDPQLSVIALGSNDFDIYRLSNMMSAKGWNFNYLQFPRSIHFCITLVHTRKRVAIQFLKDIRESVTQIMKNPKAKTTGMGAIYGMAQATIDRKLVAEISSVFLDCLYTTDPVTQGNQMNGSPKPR
Assay: S1P lyase inhibitory capacity in mice (thymus extract after oral dosing)
Type: in vivo
Conditions: BALB/c mice, single oral dose, S1P lyase activity of thymus extract with [3H]dhS1P
Procedure: Male BALB/c mice at age 6 weeks were purchased from Charles River Laboratories Japan Inc. Mice that had reached age 7 weeks after 1-week acclimation were used for the experiment. A group of 5 animals was used for the experiment. The necessary amount of the analyte was weighed, and subsequently suspended in a 0.5% MC solution using a mortar and a pestle. The solution to be administered was prepared so as to be 10 mL per 1 kg of body weight. The prepared compound solution was administered orally in a single dose using a stomach tube.
Dipotassium dihydrogen ethylenediaminetetraacetate (EDTA-2K, Nacalai Tesque, Inc.) was dissolved with water for injection so as to be 5% (5% EDTA-2K solution). […] At that time, the thymus was also extirpated. The obtained blood was handled under the condition of room temperature until measurement. […]
The extirpated thymus was crushed by means of either a method using zirconia beads in the presence of 500 μl, of a homogenization buffer (50 mM HEPES-NaOH (pH=7.4), 0.15 M NaCl, 10% Glycerol, 1 mM EDTA, 1 mM DTT, complete protease inhibitor cocktail (Roche, #4693132)), or a method using Potter-Elvehjem type homogenizer after mincing. […] After the proteins of the supernatant were quantified with Bradford method, the supernatant was instantly frozen with liquid nitrogen, and subsequently stored at −80° C. […]

S1P lyase inhibition in mice	SMILES
inhibited S1P lyase in mice	CCOCn1cc(CO)nc1C(C)=O [Example 1, 1-(1-Ethoxymethyl-4-hydroxymethyl-1H-imidazol-2-yl)ethanone]
inhibited S1P lyase in mice	COCn1cc(CO)nc1C(C)=O [Example 5, 1-(4-Hydroxymethyl-1-methoxymethyl-1H-imidazol-2-yl)ethanone]
